Source: US5219873A, “Compounds of 1,2,5,6-tetrahydropyridine which are useful as cholinergic agents” (Roussel UCLAF, priority 1987, dated 1993)
Like-named read-outs stand apart in the source and are kept apart here.

Legend:
[1] = Diarrhoeic activity, oral, male mice; assay type: in vivo, mice (CD1, Charles Rivers); details: Mus musculus, read-out: ED50 (dose which caused a diarrhoea in 50% of the animals)
Description: (§1) The products have been utilized in the hydrochloride form.
The test is carried out on male mice (CD1, Charles Rivers) weighing 25 to 30 g, fasting for 6 hours.
The control animals receive only the excipient.
After treatment, the animals are put separately in cages the base of which is covered with blotting paper and are put under observation for 30, 60, 120 and 180 minutes.
The sheets of absorbent paper are changed after each observation.
1: feces slightly soft with or without humid aureola.
2: feces slightly soft with presence of a well defined humid circle.
3: feces soft with presence of a large humid circle.
4: feces without consistency with presence of a very large humid circle.

[2] = system: ileum isolated from guinea-pig; test: Test on ileum isolated from guinea-pig (contraction, agonist activity); assay type: cell-based; details: Cavia porcellus, Tyrode's solution, 37° C., read-out: pD2 (negative logarithm of the dose which produces 50% of the maximum effect) (converted)
Description: as §1
Pieces of the ileum are removed from guinea-pigs killed by decapitation. The isolated ileum is placed in 10 cm^3 of Tyrode's solution at 37° C. and aerated with a mixture of oxygen (95%) and carbon dioxide gas (5%). The contractions due to the products are recorded by means of a detector connected to a polygraph. The products to be tested are added at concentrations between 1.10^-3 M/l and 1.10^-8 M/l.
The products presenting a contraction effect are tested relative to atropine and hexamethonium to establish whether the activity is of the "muscarine" or "nicotine" type.
The agonist activity is expressed in pD2 (negative logarithm of the dose which produces 50% of the maximum effect.

[3] = Hypothermic activity, male mice (body temperature); assay type: in vivo, mice (CD1 Charles Rivers); details: for ED (-1 C body temperature): Mus musculus, male mice, read-out: Effective dose (-1° C.)
Description: as §1
The test is carried out on male mice (CD1 Charles Rivers), weighing 25-30 g, fasting for 6 hours.
The temperature of the body is noted by means of a thermocouple placed in the rectum to about 1.5 cm and connected to an electric temperature recorder. […]
The degree of hypothermia is evaluated as the difference between the treated animals and the controls, and the dose necessary to reduce the body temperature by 1° C. is determined.
The duration of action of the products has been evaluated by using the dose which reduces the body temperature by 1° to 1.5° C.

[4] = Acute toxicity, oral, male mice; set-up: species or system mice (CD1 Charles Rivers); details: mouse, in vivo, mortality during 7 days
Description: as §1
The test was carried out on male mice (CD1 Charles Rivers) of 22 to 24 g, fasting for 16 hours. […] The mortality is noted during the 7 days following the treatment.

[5] = system: central cholinergic system; details: cited from earlier work
[6] = intravenous route; cited from earlier work

Row | SMILES | ED50 [1] | EC50 [2] | Variation of the Body Temperature ([3]; 1 mg/kg p.o., 0 min) | Variation of the Body Temperature ([3]; 1 mg/kg p.o., 30 min) | Variation of the Body Temperature ([3]; 1 mg/kg p.o., 60 min) | Variation of the Body Temperature ([3]; 1 mg/kg p.o., 120 min) | Variation of the Body Temperature ([3]; 1 mg/kg p.o., 180 min) | Variation of the Body Temperature ([3]; 1 mg/kg s.c., 0 min) | Variation of the Body Temperature ([3]; 1 mg/kg s.c., 30 min) | Variation of the Body Temperature ([3]; 1 mg/kg s.c., 60 min) | Variation of the Body Temperature ([3]; 1 mg/kg s.c., 120 min) | Variation of the Body Temperature ([3]; 1 mg/kg s.c., 180 min) | ED (-1 C body temperature) ([3]; po, per os) | ED (-1 C body temperature) ([3]; sc, s.c.) | LD50 at 168 h [4] | also measured
1 | CON=C(C)C1=CCCNC1 [Example 3, 3-acetyl-1,2,5,6-tetrahydropyridine-O-methyl-oxime] | 0.85 mg/kg | 0.0316 µM | +0.1 °C | -1.1 °C | -1.0 °C | -0.1 °C | -0.1 °C | +0.1 °C | -1.0 °C | -0.8 °C | +0.1 °C | +0.1 °C | 0.87 mg/kg | 0.91 mg/kg | 125 mg/kg | –
2 | CC(=NO)C1=CCCNC1 [Example 1, 3-acetyl-1,2,5,6-tetrahydropyridine-oxime] | 5 mg/kg | 5.62 µM | – | – | – | – | – | – | – | – | – | – | 9 mg/kg | 11 mg/kg | 350 mg/kg | Variation of the Body Temperature ([3]; 10 mg/kg p.o., 0 min): 0 °C; Variation of the Body Temperature ([3]; 10 mg/kg p.o., 30 min): -0.7 °C; Variation of the Body Temperature ([3]; 10 mg/kg p.o., 60 min): -1.0 °C; Variation of the Body Temperature ([3]; 10 mg/kg p.o., 120 min): -0.2 °C; Variation of the Body Temperature ([3]; 10 mg/kg p.o., 180 min): +0.1 °C; Variation of the Body Temperature ([3]; 10 mg/kg s.c., 0 min): 0 °C; Variation of the Body Temperature ([3]; 10 mg/kg s.c., 30 min): -0.6 °C; Variation of the Body Temperature ([3]; 10 mg/kg s.c., 60 min): -0.8 °C; Variation of the Body Temperature ([3]; 10 mg/kg s.c., 120 min): -0.2 °C; Variation of the Body Temperature ([3]; 10 mg/kg s.c., 180 min): 0 °C
3 | CON=C(C)C1=CCCN(O)C1 [Example 12, 1-N-hydroxyl-3-acetyl-1,2,5,6-tetrahydropyridine-O-methyl-oxime] | 1 mg/kg | 4.07 µM | 0 °C | -1.3 °C | -1.1 °C | 0 °C | 0 °C | -0.1 °C | -1.4 °C | -1.3 °C | +0.1 °C | 0 °C | 0.77 mg/kg | 0.72 mg/kg | 175 mg/kg | –
4 | COC(=O)C1=CCCN(C)C1 [Arecoline HBr, reference compound] | – | – | – | – | – | – | – | – | – | – | – | – | – | – | – | Variation of the Body Temperature ([3]; 3.5 mg/kg s.c., 0 min): -0.1 °C; Variation of the Body Temperature ([3]; 3.5 mg/kg s.c., 30 min): -1.5 °C; Variation of the Body Temperature ([3]; 3.5 mg/kg s.c., 60 min): -0.1 °C; Variation of the Body Temperature ([3]; 3.5 mg/kg s.c., 120 min): +0.2 °C; Variation of the Body Temperature ([3]; 3.5 mg/kg s.c., 180 min): +0.2 °C; Variation of the Body Temperature ([3]; 200 mg/kg p.o., 0 min): +0.1 °C; Variation of the Body Temperature ([3]; 200 mg/kg p.o., 30 min): -1.1 °C; Variation of the Body Temperature ([3]; 200 mg/kg p.o., 60 min): -1.0 °C; Variation of the Body Temperature ([3]; 200 mg/kg p.o., 120 min): -0.2 °C; Variation of the Body Temperature ([3]; 200 mg/kg p.o., 180 min): -0.1 °C
5 | CON=C(C)C1=CCCN(C)C1 [Example 2, 1-methyl-3-acetyl-1,2,5,6-tetrahydropyridine-O-methyl-oxime] | > 100 mg/kg | 14.1 µM | – | – | – | – | – | – | – | – | – | – | 12 mg/kg | 25 mg/kg | 350 mg/kg | Variation of the Body Temperature ([3]; 20 mg/kg p.o., 0 min): +0.1 °C; Variation of the Body Temperature ([3]; 20 mg/kg p.o., 30 min): -1.3 °C; Variation of the Body Temperature ([3]; 20 mg/kg p.o., 60 min): -1.3 °C; Variation of the Body Temperature ([3]; 20 mg/kg p.o., 120 min): -0.9 °C; Variation of the Body Temperature ([3]; 20 mg/kg p.o., 180 min): 0 °C; Variation of the Body Temperature ([3]; 40 mg/kg s.c., 0 min): +0.1 °C; Variation of the Body Temperature ([3]; 40 mg/kg s.c., 30 min): -1.0 °C; Variation of the Body Temperature ([3]; 40 mg/kg s.c., 60 min): -1.4 °C; Variation of the Body Temperature ([3]; 40 mg/kg s.c., 120 min): -1.1 °C; Variation of the Body Temperature ([3]; 40 mg/kg s.c., 180 min): -0.8 °C
6 | COC(=O)C1=CCCN(C)C1 [Arecoline, reference compound] | 35 mg/kg | 0.331 µM | – | – | – | – | – | – | – | – | – | – | 194 mg/kg | 3 mg/kg | – | activity by oral route [5]: very weak activity by oral route; effect on patients having a memory defect [6]: positive effect on patients having a memory defect
